ChEMBL document CHEMBL2073794, “Catecholamine transport by the organic cation transporter type 1 (OCT1)” (Br J Pharmacol, 1998)

Molecular target: T1, Solute carrier family 22 member 1 (Rattus norvegicus, UniProt Q63089)
T1 sequence (Q63089 whole entry): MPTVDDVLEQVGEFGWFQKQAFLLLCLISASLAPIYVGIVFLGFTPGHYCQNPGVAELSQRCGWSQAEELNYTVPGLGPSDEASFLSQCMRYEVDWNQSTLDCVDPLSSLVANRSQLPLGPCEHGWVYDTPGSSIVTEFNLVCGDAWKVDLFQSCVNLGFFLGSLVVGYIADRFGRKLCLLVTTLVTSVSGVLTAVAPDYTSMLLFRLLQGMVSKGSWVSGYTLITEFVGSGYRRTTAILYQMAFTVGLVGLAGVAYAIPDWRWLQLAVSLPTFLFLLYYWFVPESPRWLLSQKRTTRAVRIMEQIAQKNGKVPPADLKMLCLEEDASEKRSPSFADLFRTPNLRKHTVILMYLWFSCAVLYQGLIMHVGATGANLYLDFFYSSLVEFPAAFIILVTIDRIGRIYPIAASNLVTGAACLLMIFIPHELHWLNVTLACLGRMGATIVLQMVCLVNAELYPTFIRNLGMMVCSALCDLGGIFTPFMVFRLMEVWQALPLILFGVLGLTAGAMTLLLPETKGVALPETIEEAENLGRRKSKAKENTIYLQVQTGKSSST
Experiment: TP_TRANSPORTER: uptake in OCT1-expressing HEK293 cells
Assay type: functional, cell-based
Settings: human

Row | Compound | Activity
1 | NCCc1ccc(O)c(O)c1 [DOPAMINE] | substrate [+]
2 | NCCc1ccc(O)cc1 [TYRAMINE] | substrate [+]
3 | CNC[C@H](O)c1ccc(O)c(O)c1 [EPINEPHRINE] | substrate [+]
4 | NC[C@H](O)c1ccc(O)c(O)c1 [NOREPINEPHRINE] | substrate [+]
5 | CC[N+](CC)(CC)CC [TETRYLAMMONIUM] | substrate [+]
6 | NCCc1c[nH]c2ccc(O)cc12 [SEROTONIN] | substrate [+]
